System: male mice (strain ICR)
Assay: Formalin paw licking test in mice
Assay type: in vivo
Details: 10 mg/kg i.v. in saline, 15 minutes before sub-plantar 3% formalin; compared to vehicle control
Experimental: The activity of the compounds in the in vitro screen was confirmed in vivo. Compound 103 was dissolved in saline and administrated to male mice (strain ICR) at 10 mg/kg i.v. in the tail vein. After 15 minutes, a 3% solution of formalin was administered sub-plantar and the time spent licking the paw was monitored in 5 minute segments over a 45 minute period. The experiment was conducted on 1–6 mice per group and compared to a control set (5 mice), which were given the vehicle alone prior to formalin injection. The first phase response was reduced by approximately 50%. The person of skill in the art would accept this test as predictive of therapeutic utility for analgesia.

Structure (SMILES): CC1c2cc(O)ccc2CCN1Cc1ccccc1C(=O)NCC/C=C/c1ccccc1 (stereo not shown) [Compound 103, 2-(7-hydroxy-1-methyl-3,4-dihydro-1H-isoquinolin-2-ylmethyl)-N-(4-phenyl-but-3-enyl)-benzamide]
- reduction of first phase response (time spent licking the paw): approximately 50%

Reference: US7084154B2, “2-(aminomethyl) arylamide analgesics” (Pharmacopeia Drug Disclovery, Inc., priority 2003, dated 2006)
